# Laboratory results: patent US8088951B2, “Epigenetic mechanisms re-establish access to long-term memory after neuronal loss” (Massachusetts Institute of Technology, priority 2006, dated 2012)
# “Also recorded” adds a separate entry of the source.
# Assays:
# Type in all cases: in vivo
# [1] = tested on: CK-p25 Tg mice; experiment: Recovery of long-term fear memories in CK-p25 Tg mice; details: CK-p25 Tg mice trained, 4 weeks rest, 6 weeks p25, then 1.2 g/kg daily for 4 weeks; P=0.0496
# Description: The effect of HDAC inhibition on the recovery of inaccessible long-term memories was evaluated. Eleven month old CK-p25 Tg mice were trained in the fear conditioning paradigm and returned to their home cages for 4 weeks. Subsequently p25 was induced for 6 weeks before the mice were injected with either saline (vehicle, n=12) or SB (1.2 g/kg, n=14) for 4 weeks (daily). […] (FIG. 4f). […] Thus chronic injection of SB led to the recovery of memories in CK-p25 Tg mice that had developed severe neuronal loss.
# [2] = tested on: CK-p25 Tg mice; experiment: Recovery of long-term spatial memories in CK-p25 Tg mice (water maze reminder-training); details: daily injection after 6 weeks p25 expression
# Description: Recovery of spatial memories upon environmental enrichment and sodiumbutyrate injection. CK-p25 Tg mice in which p25 expression was repressed and control mice were trained in the water maze paradigm until all mice reliably found the hidden platform. Afterwards all mice were returned to their home cages for 4 weeks to allow the consolidation of hippocampus independent long-term memories. Afterwards p25 expression was induced for 6 weeks, followed by p25 repression. […] To measure the retrieval of long-term memory mice were instead exposed to only 2 reminder-training sessions on a single day. […] The recovery of spatial memories upon environmental enrichment was evaluated by a similar experiment, except that after 6 weeks of p25 expression mice were either subjected to EE or returned to their home cages for 4 weeks. […] To evaluate the recovery of spatial memories upon SB injection, a similar experiment was performed as described above, but instead of EE, one group of CK-p25 Tg mice (n=10) received daily injection of SB, whereas the other group was injected with vehicle (n=10).
# [3] = tested on: MAP-2, synaptophysin (SVP), synaptic marker proteins; experiment: Synaptic plasticity markers in CK-p25 Tg mice (immunostaining, immunoblot)
# Description: Immunoblotting and staining: Lysates for immunoblotting were prepared as described by Fischer et al. (3). To isolate histones, brain tissue was homogenized in TX-buffer (50 mM Tris HCL, 150 mM NACL, 2 mM EDTA, 1% Triton-100) and incubated at 4° C. for 15 min prior to centrifugation at 200 rpm for 10 min. After a wash-step in TX-buffer the pellet was dissolved in TX-buffer containing 0.2M HCl and incubated on ice for 30 min, before a second centrifugation at 10000 rpm for 10 min. The supernatant was either dialysed or directly used for immunoblotting. Antibodies were used in 1:1000 concentrations. All antibodies detecting histones and anti-PSD-95 were form Upstate (Lake Placid, N.Y.). Anti-synaptophysin (SVP38) was from Sigma. Anti-neuronal nuclei (neuN) and anti-growth associated protein (Gap43) were from Chemicon (Temecula, Calif.) and anti-N-cadherin, anti-β-catenin were from Santa Cruz (Santa Cruz, Calif.). Immunostaining was performed as described by Fischer et al. (3). Antibodies mentioned above were used in a 1:500 dilution. Anti-MAP-2 antibody (Sigma) was used in a 1:200 dilution.
# LSMeta10 software (Zeiss; Jena, Germany) was used to calculate the mean SVP intensity. Brain sections with the strongest intensity were scanned first. All other images included in the analysis where scanned using the same microscope setting. […] Scale bar: 20 μm. py, pyramidal cell layer (FIG. 1g).
# For SB treatment, p25 was induced in 11 month old CK-p25 Tg mice for 6 weeks. Afterwards p25 expression was repressed and one group of CK-p25 Tg mice was subjected to daily sodiumbutyrate (SB) injection (1.2 g/kg) for 4 weeks, whereas the other group received saline injection. […] Representative images showing hippocampal MAP-2 staining are depicted in FIG. 7f. MAP-2 immunoreactivity of CK-p25 Tg mice treated with SB is increased when compared to the vehicle group. Representative images showing NeuN staining of the ACC.
# [4] = tested on: C57BL/6J mice; experiment: Water maze paradigm (spatial learning) in wild type mice; details: daily ip for 4 weeks; vs vehicle group; P<0.0001
# Description: Learning tests: All behavioral testing is described in Fischer et al. (3).
# Mechanism underlying EE. Other than a few genes involved in synaptic function, relatively little is known about the mechanism underlying EE (12-14). Since histone acetylation, an epigenetic mechanism regulating gene expression via chromatin remodeling, has recently been implicated in synaptic plasticity and learning behavior (15-18), the induction of a transcriptional program by EE that leads to activation of plasticity genes was evaluated. Wild type mice were subjected to EE and hippocampal and cortical brain lysates were obtained 3, 24 h or 2 weeks later (n=3/group) by acid extraction and probed with antibodies detecting histone-tail modification that indicate active chromatin. Increases in hippocampal H3 (K-9, K14) and H4 (K-5) and in cortical H3 (K-9) and H4 (K-5) acetylation were observed. […] No changes in H4 acetylation were observed when the Ac-H4 (K,8,12,16) antibody was used, which is likely due to the fact that H4-K16 is a marker of condensed chromatin. EE induced hippocampal and cortical histone 3 (H3) and histone 4 (H4) acetylation and methylation as soon as 3 hours after treatment (FIGS. 3a, b). […]
# The over expression of HDAC2 impairs spatial learning. […] The swimming path of the mice was recorded by a video camera and analyzed by the Videomot 2 software (TSE). […]
compound,measurement,setting,value
"CCCC(=O)[O-].[Na+] [SB, sodiumbutyrate]",freezing behavior in long-term memory test,[1],performed significantly better than vehicle injected CK-p25 Tg mice
same,recovery of long-term spatial memories,[2],leads to the recovery of long-term spatial memories; also recorded: spatial long-term memories recover after neuronal loss
same,levels of synaptic marker proteins (markers for synaptic plasticity and integrity),"[3]; CK-p25 Tg mice, daily 1.2 g/kg for 4 weeks, hippocampus and cortex, vs vehicle",increased levels of synaptic marker proteins; also recorded: several markers for synaptic plasticity and integrity were increased
same,hippocampal MAP-2 immunoreactivity,"[3]; CK-p25 Tg mice, daily 1.2 g/kg for 4 weeks, vs vehicle",increased
same,levels of synaptic marker proteins,"[3]; CK-p25 Tg mice, long-term memory experiment, vs vehicle group",elevated levels of synaptic marker proteins
same,MAP-IR in the ACC,"[3]; CK-p25 Tg mice, vs vehicle treated",MAP-IR was increased
same,hippocampal SVP-IR,"[3]; CK-p25 mice, vs vehicle-injected, P<0.0001",increased hippocampal SVP-IR
same,escape latency in water maze paradigm,[4],shorter escape latency
